In a compilation of properties of binary mixtures (doi:10.1021/je950317s):

Experiment: excess molar enthalpy (molar enthalpy of mixing); xn = mol fraction of the nth substance listed
Conditions: 100 kPa

Cl/C=C/Cl + CC(C)CC(C)(C)C
293.15 K
Conditions	excess molar enthalpy [kcal/mol]
x1 = 0.1328	0.0519
x1 = 0.1885	0.0681
x1 = 0.2561	0.0923
x1 = 0.3253	0.111
x1 = 0.415	0.124
x1 = 0.4532	0.13
x1 = 0.4584	0.134
x1 = 0.5167	0.141
x1 = 0.5332	0.138
x1 = 0.5571	0.138
x1 = 0.5777	0.139
x1 = 0.6055	0.139
x1 = 0.6468	0.135
x1 = 0.6554	0.133
x1 = 0.6658	0.131
x1 = 0.6824	0.13
x1 = 0.6926	0.127
x1 = 0.8092	0.0997
x1 = 0.8404	0.0875
x1 = 0.8988	0.0619
x1 = 0.9517	0.033

Cl/C=C\Cl + CC(C)CC(C)(C)C
293.15 K
Conditions	excess molar enthalpy [kcal/mol]
x1 = 0.2119	0.142
x1 = 0.3627	0.209
x1 = 0.4911	0.228
x1 = 0.5812	0.226
x1 = 0.6622	0.21
x1 = 0.7314	0.188
x1 = 0.8061	0.155
x1 = 0.8696	0.116
x1 = 0.9434	0.0566

Cl/C=C/Cl + CCCCCCC
293.15 K
Conditions	excess molar enthalpy [kcal/mol]
x1 = 0.1911	0.081
x1 = 0.2074	0.0851
x1 = 0.2453	0.102
x1 = 0.2905	0.111
x1 = 0.3272	0.128
x1 = 0.352	0.129
x1 = 0.3757	0.137
x1 = 0.4118	0.151
x1 = 0.4157	0.15
x1 = 0.452	0.158
x1 = 0.4756	0.158
x1 = 0.4978	0.161
x1 = 0.5334	0.162
x1 = 0.5472	0.163
x1 = 0.5627	0.165
x1 = 0.5821	0.162
x1 = 0.6074	0.164
x1 = 0.6429	0.157
x1 = 0.6534	0.156
x1 = 0.7038	0.145
x1 = 0.7761	0.125
x1 = 0.8005	0.117
x1 = 0.907	0.0655
x1 = 0.9624	0.0301

Cl/C=C\Cl + CCCCCCC
313.15 K
Conditions	excess molar enthalpy [kcal/mol]
x1 = 0.0572	0.0485
x1 = 0.2014	0.148
x1 = 0.3465	0.218
x1 = 0.4595	0.245
x1 = 0.5694	0.24
x1 = 0.6673	0.221
x1 = 0.7579	0.183
x1 = 0.8409	0.137
x1 = 0.9317	0.0652

Cl/C=C/Cl + CCCCCCCCCC
293.15 K
Conditions	excess molar enthalpy [kcal/mol]
x1 = 0.0575	0.022
x1 = 0.1583	0.0636
x1 = 0.2175	0.0865
x1 = 0.2316	0.0944
x1 = 0.2585	0.106
x1 = 0.3396	0.132
x1 = 0.3972	0.152
x1 = 0.4202	0.16
x1 = 0.4829	0.168
x1 = 0.5312	0.179
x1 = 0.5522	0.178
x1 = 0.5739	0.175
x1 = 0.6031	0.175
x1 = 0.6375	0.178
x1 = 0.6555	0.176
x1 = 0.6923	0.165
x1 = 0.6977	0.166
x1 = 0.7284	0.163
x1 = 0.7393	0.161
x1 = 0.7653	0.148
x1 = 0.7812	0.144
x1 = 0.8229	0.127
x1 = 0.8478	0.116
x1 = 0.9335	0.0602
x1 = 0.9785	0.0213

Cl/C=C\Cl + CCCCCCCCCC
293.15 K
Conditions	excess molar enthalpy [kcal/mol]
x1 = 0.2397	0.171
x1 = 0.4025	0.253
x1 = 0.6996	0.239
x1 = 0.7635	0.211
x1 = 0.9492	0.0662
